# Legend:
# [1] = molecular target: T1, KPC-2 β-lactamase D179Y variant (Klebsiella pneumoniae, UniProt Q93LQ9, D178Y); type: binding
# [2] = molecular target: T2, KPC-2 β-lactamase D179N variant (Klebsiella pneumoniae, UniProt Q93LQ9, D178N); experiment: time-based mass spectrometry ([…]); type: binding
# [3] = molecular target: T2, KPC-2 β-lactamase D179N variant; experiment: stopped-flow hydrolysis progress curves with purified enzyme; timed mass spectrometry; type: biochemical
# KPC-2 β-lactamase = KPC-2 β-lactamase (Klebsiella pneumoniae, UniProt Q93LQ9); experiment: stopped-flow hydrolysis progress curves with purified enzyme; type: biochemical
# [4] = molecular target: T1, KPC-2 β-lactamase D179Y variant; experiment: time-based mass spectrometry of acyl-complex ([…]); no turnover in stopped-flow; type: binding
# T1 sequence (Q93LQ9 25-293 D178Y): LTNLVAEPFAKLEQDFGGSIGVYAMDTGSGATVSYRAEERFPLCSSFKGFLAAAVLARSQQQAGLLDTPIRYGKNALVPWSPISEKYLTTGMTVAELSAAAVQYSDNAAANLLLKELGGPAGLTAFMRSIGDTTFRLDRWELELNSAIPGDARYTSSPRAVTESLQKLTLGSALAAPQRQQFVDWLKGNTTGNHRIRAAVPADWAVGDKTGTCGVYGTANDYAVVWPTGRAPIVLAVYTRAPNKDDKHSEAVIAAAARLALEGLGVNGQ
# T2 sequence (Q93LQ9 25-293 D178N): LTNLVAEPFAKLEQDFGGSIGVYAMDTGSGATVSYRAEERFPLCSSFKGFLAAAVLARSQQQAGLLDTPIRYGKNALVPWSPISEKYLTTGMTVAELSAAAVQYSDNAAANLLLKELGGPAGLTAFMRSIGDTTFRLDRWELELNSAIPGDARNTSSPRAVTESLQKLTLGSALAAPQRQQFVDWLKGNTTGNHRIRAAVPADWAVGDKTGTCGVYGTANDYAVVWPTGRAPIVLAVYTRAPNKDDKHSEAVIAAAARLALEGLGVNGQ
# Sequence of KPC-2 β-lactamase (Q93LQ9 25-293 limits assumed): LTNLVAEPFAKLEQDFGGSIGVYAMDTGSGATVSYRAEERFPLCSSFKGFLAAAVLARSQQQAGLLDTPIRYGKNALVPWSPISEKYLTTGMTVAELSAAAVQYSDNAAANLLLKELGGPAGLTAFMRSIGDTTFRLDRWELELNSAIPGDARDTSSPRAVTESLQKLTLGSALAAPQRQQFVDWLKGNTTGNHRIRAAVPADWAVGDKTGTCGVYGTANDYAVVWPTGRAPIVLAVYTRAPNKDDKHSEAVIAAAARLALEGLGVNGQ
SMILES,time-based mass spectrometry of acyl-complex (1:1) [1],time-based mass spectrometry (1:1) [2],stopped-flow hydrolysis progress curves with purified enzyme; timed mass spectro [3],stopped-flow hydrolysis progress curves with purified enzyme (KPC-2 β-lactamase),time-based mass spectrometry of acyl-complex (1:1); no turnover in stopped-flow [4]
NC(=O)[C@@H]1CC[C@@H]2CN1C(=O)N2OS(=O)(=O)O [avibactam],relebactam is slower to form an acyl complex with the D179Y variant compared to avibactam,Relebactam and avibactam behaved similarly vs. the D179N variant.,–,–,–
C[C@@H](O)[C@H]1C(=O)N2C(C(=O)O)=C(SCCN=CN)C[C@H]12 [imipenem],–,–,KPC-2 (blue line) and the D179N variant (yellow line) both hydrolyzed imipenem,KPC-2 (blue line) and the D179N variant (yellow line) both hydrolyzed imipenem,acyl-complexes with imipenem and ceftazidime with the D179N variant was captured less often compared to the D179Y variant
O=C(NC1CCNCC1)[C@@H]1CC[C@@H]2CN1C(=O)N2OS(=O)(=O)O [relebactam],relebactam is slower to form an acyl complex with the D179Y variant compared to avibactam,–,–,–,–

# Reference: paper PMC10215400 (Antibiotics, 2023)
